Laboratory results published in patent US11578051B2, “Thiophene carboxamide derivative and plant disease control agent comprising same” (KOREA RESEARCH INSTITUTE OF CHEMICAL TECHNOLOGY, priority 2018, dated 2023).

Tests used:
Type in all cases: in vivo
[1] = tested on: cucumber powdery mildew pathogen (Sphaerotheca fusca); assay: Cucumber powdery mildew control effect test; conditions: treatment concentration 10 ppm, as in Experimental Example 3
Experimental: A predetermined amount of the present compound corresponding to the test concentration was dissolved in 10% acetone and then was sprayed to foliage in a single leafy cucumber (variety: Baekdadagi) grown in a circular pot (6×7 cm, diameter×height). One day after application, the Cucumber plants were inoculated by spraying a spore suspension prepared with spores obtained from cucumber leaves infected with cucumber powdery mildew pathogen (Sphaerotheca fusca). After an incubation period of 1 day at 20° C. humid conditions, the plants were kept in a chamber for 12 days at a constant temperature and humidity under constant light conditions. After 13 days of the compound treatment, the disease incidence was assessed according to equation (1) of Experimental Example 1, and the control value was determined according to the criteria of Experimental Example 1. Compound No. 1 and the following four compounds as a comparative control compound were evaluated for controlling cucumber powdery mildew as described in Experimental Example 3.

[2] = tested on: cucumber sclerotinia pathogen (Sclerotinia sclerotiorum); assay: Cucumber sclerotinia disease control effect test; conditions: cucumber (Baekdadagi), foliar spray, active ingredient 200 ppm, spraying dose 30 mL, assessed 4 days after treatment
Experimental: A predetermined amount of the present compound corresponding to the test concentration was dissolved in 10% acetone and then was sprayed to foliage in a single leafy cucumber (cultivar: Baekdadagi) grown in a circular pot (6×7 cm, diameter×height). One day after application, the Cucumber plants were inoculated by spraying a mycelial suspension of a liquid culture of cucumber sclerotinia pathogen (Sclerotinia sclerotiorum) and incubated for 4 days under constant light conditions and high humidity conditions at 25° C. to induce disease development. Four days after the compound treatment, the disease incidence was assessed according to equation (1) of Experimental Example 1, and the control value was determined according to the criteria of Experimental Example 1.

[3] = tested on: rice sheath blight pathogen (Rhizoctonia solani); assay: Rice sheath blight control effect test; conditions: rice (Chucheongbyeo), foliar spray, active ingredient 200 ppm, spraying dose 30 mL, assessed 5 days after treatment
Experimental: A predetermined amount of the present compound corresponding to the test concentration was dissolved in 10% acetone and then was sprayed to foliage in the 5-leaf stage rice (variety: Chucheongbyeo) grown in a circular pot (6×7 cm, diameter×height). One day after application, the rice plants were inoculated by spraying a mycelial suspension of a culture of rice sheath blight pathogen (Rhizoctonia solani) obtained by culturing in a rice bran culture medium and incubated to induce disease development for 5 days under a humid condition at 30° C. After 5 days of the compound treatment, the disease incidence was assessed according to the equation (1) of Experimental Example 1, and the control value was determined according to the criteria of Experimental Example 1.

SMILES | Activity (control value criterion) [1] | control value criterion [2] | control value criterion [3]
CON=Cc1ccc(-c2ccccc2NC(=O)c2cn(C)nc2C(F)F)cc1 [Comparative compound A, 3-(difluoromethyl)-N-(4′-((methoxyimino)methyl)-[1,1′-biphenyl]-2-yl)-1-methyl-1H-pyrazole-4-carboxamide] | 0 (less than 9% control value) |  | 
CON=Cc1ccc(-c2ccccc2NC(=O)c2sccc2C)cc1 [Comparative compound B, N-(4′-((methoxyimino)methyl)-[1,1′-biphenyl]-2-yl)-3-methylthiophene-2-carboxamide] | 1 (Control value 10-29%) |  | 
CON=Cc1ccc(-c2ccccc2NC(=O)c2cn(C)nc2C(F)F)cc1F [Comparative compound C, 3-(difluoromethyl)-N-(3′-fluoro-4′-((methoxyimino)methyl)-[1,1′-biphenyl]-2-yl)-1-methyl-1H-pyrazole-4-carboxamide] | 0 (less than 9% control value) |  | 
CON=Cc1c(F)cc(-c2ccccc2NC(=O)c2c(C(F)F)nn(C)c2Cl)cc1F [Comparative compound D, 5-chloro-N-(3′,5′-difluoro-4′-((methoxyimino)methyl)-[1,1′-biphenyl]-2-yl)-3-(difluoromethyl)-1-methyl-1H-pyrazole-4-carboxamide] | 1 (Control value 10-29%) |  | 
CON=Cc1c(F)cc(-c2ccccc2NC(=O)c2sccc2C)cc1F [Compound 1, N-(3′,5′-difluoro-4′-((methoxyimino)methyl)-[1,1′-biphenyl]-2-yl)-3-methylthiophene-2-carboxamide] | 5 (Control value 90-100%) | 5 (Control value 90-100%) | 5 (Control value 90-100%)
